We go through two compounds from ChEMBL document CHEMBL1201861, “Genomics of Drug Sensitity in Cancer screening data, Wellcome Trust Sanger Institute”.

One experiment concerns MDA-MB-134-VI. Put plainly: cells. Conditions: Homo sapiens, MDA-MB-134-VI. The experiment is classed as functional, cell-based, Homo sapiens.
Description: SANGER: Inhibition of human MDA-MB-134-VI cell growth in a cell viability assay.
As to `C=CC(=O)N1CCCC(Nc2nc(Nc3ccc(N(C)C(=O)CC)cc3)nc3[nH]cnc23)C1` (configuration not stated), the 50% inhibitory concentration (IC50) – broadly, the point on the concentration scale where inhibition reaches its midpoint – is above 10.2 µM.

Compound `COc1cc(N2CCC(N3CCN(C)CC3)CC2)ccc1Nc1ncc(Cl)c(Nc2ccccc2S(=O)(=O)C(C)C)n1` [TAE-684] came in with a half-inhibitory concentration (IC50) above 2 µM.

Another experiment has as its system Raji. Put plainly: cells. It is filed as functional, cell-based, Homo sapiens. Conditions: Homo sapiens, Raji.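 Note: cell viability assay measuring inhibition of Raji cell growth.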
Description: SANGER: Inhibition of human Raji cell growth in a cell viability assay.
As for `C=CC(=O)N1CCCC(Nc2nc(Nc3ccc(N(C)C(=O)CC)cc3)nc3[nH]cnc23)C1` (configuration not stated), the half-inhibitory concentration (IC50) is above 10.2 µM.

In the case of `COc1cc(N2CCC(N3CCN(C)CC3)CC2)ccc1Nc1ncc(Cl)c(Nc2ccccc2S(=O)(=O)C(C)C)n1` [TAE-684], the IC50 is above 2 µM.

The subject of a further experiment is NCI-H510A. Put plainly: cells. It is filed as functional, cell-based, Homo sapiens. To be noted: Homo sapiens, NCI-H510A.
Description: SANGER: Inhibition of human NCI-H510A cell growth in a cell viability assay.
As to `C=CC(=O)N1CCCC(Nc2nc(Nc3ccc(N(C)C(=O)CC)cc3)nc3[nH]cnc23)C1` (configuration not stated), the IC50 is above 10.2 µM.

Regarding `COc1cc(N2CCC(N3CCN(C)CC3)CC2)ccc1Nc1ncc(Cl)c(Nc2ccccc2S(=O)(=O)C(C)C)n1` [TAE-684], the IC50 was above 2 µM.

Another experiment relates to NCI-H524. Put plainly: cells. It is filed as functional, cell-based, Homo sapiens. To be noted: Homo sapiens, NCI-H524.
Description: SANGER: Inhibition of human NCI-H524 cell growth in a cell viability assay.
`C=CC(=O)N1CCCC(Nc2nc(Nc3ccc(N(C)C(=O)CC)cc3)nc3[nH]cnc23)C1` (configuration not stated) displayed a half-maximal inhibitory concentration (IC50) above 10.2 µM.

In the case of `COc1cc(N2CCC(N3CCN(C)CC3)CC2)ccc1Nc1ncc(Cl)c(Nc2ccccc2S(=O)(=O)C(C)C)n1` [TAE-684], it took 1.64 µM to reach half-maximal inhibition (IC50).

Another experiment relates to COR-L279. The experiment can be described thus: SANGER: Inhibition of human COR-L279 cell growth in a cell viability assay. It is filed as functional, cell-based. To be noted: Homo sapiens, COR-L279.
`C=CC(=O)N1CCCC(Nc2nc(Nc3ccc(N(C)C(=O)CC)cc3)nc3[nH]cnc23)C1` (configuration not stated): the IC50 was above 10.2 µM.

`COc1cc(N2CCC(N3CCN(C)CC3)CC2)ccc1Nc1ncc(Cl)c(Nc2ccccc2S(=O)(=O)C(C)C)n1` [TAE-684] came in with an IC50 above 2 µM.

A further experiment relates to IM-9. Put plainly: SANGER: Inhibition of human IM-9 cell growth in a cell viability assay. It is filed as functional, cell-based. Conditions: Homo sapiens, IM-9.
With `C=CC(=O)N1CCCC(Nc2nc(Nc3ccc(N(C)C(=O)CC)cc3)nc3[nH]cnc23)C1` (configuration not stated), the IC50 is above 10.2 µM.

Compound `COc1cc(N2CCC(N3CCN(C)CC3)CC2)ccc1Nc1ncc(Cl)c(Nc2ccccc2S(=O)(=O)C(C)C)n1` [TAE-684] yielded an IC50 above 2 µM.

A further experiment has as its system SIMA. The experiment can be described thus: cells. It is filed as functional, cell-based, Homo sapiens. To be noted: Homo sapiens, SIMA.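 Note: growth inhibition of SIMA cells, measured with a cell viability readout.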
Description: SANGER: Inhibition of human SIMA cell growth in a cell viability assay.
On to `C=CC(=O)N1CCCC(Nc2nc(Nc3ccc(N(C)C(=O)CC)cc3)nc3[nH]cnc23)C1` (configuration not stated), for which the IC50 is above 10.2 µM.

`COc1cc(N2CCC(N3CCN(C)CC3)CC2)ccc1Nc1ncc(Cl)c(Nc2ccccc2S(=O)(=O)C(C)C)n1` [TAE-684] gave a half-inhibitory concentration (IC50) above 2 µM.

The test system of another experiment is SNU-16. The experiment can be described thus: cells. The experiment is classed as functional, cell-based, Homo sapiens. To be noted: Homo sapiens, SNU-16.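 Note: growth inhibition of human SNU-16 cells, determined with a cell viability readout.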
Description: SANGER: Inhibition of human NCI-SNU-16 cell growth in a cell viability assay.
As for `C=CC(=O)N1CCCC(Nc2nc(Nc3ccc(N(C)C(=O)CC)cc3)nc3[nH]cnc23)C1` (configuration not stated), the half-inhibitory concentration (IC50) was above 10.2 µM.

`COc1cc(N2CCC(N3CCN(C)CC3)CC2)ccc1Nc1ncc(Cl)c(Nc2ccccc2S(=O)(=O)C(C)C)n1` [TAE-684] yielded an IC50 of 0.727 µM.

A further experiment deals with CHP-126. The experiment can be described thus: cells. The experiment is classed as functional, cell-based, Homo sapiens. Conditions: Homo sapiens, CHP-126.
Description: SANGER: Inhibition of human CHP-126 cell growth in a cell viability assay.
`C=CC(=O)N1CCCC(Nc2nc(Nc3ccc(N(C)C(=O)CC)cc3)nc3[nH]cnc23)C1` (configuration not stated) yielded an IC50 above 10.2 µM.

Take `COc1cc(N2CCC(N3CCN(C)CC3)CC2)ccc1Nc1ncc(Cl)c(Nc2ccccc2S(=O)(=O)C(C)C)n1` [TAE-684]: the IC50 is 0.86 µM.

The next experiment relates to CAL-148. Put plainly: cells. Conditions: Homo sapiens, CAL-148. The experiment is classed as functional, cell-based, Homo sapiens.
Description: SANGER: Inhibition of human CAL-148 cell growth in a cell viability assay.
As for `C=CC(=O)N1CCCC(Nc2nc(Nc3ccc(N(C)C(=O)CC)cc3)nc3[nH]cnc23)C1` (configuration not stated), the 50% inhibitory concentration (IC50) is above 10.2 µM.

`COc1cc(N2CCC(N3CCN(C)CC3)CC2)ccc1Nc1ncc(Cl)c(Nc2ccccc2S(=O)(=O)C(C)C)n1` [TAE-684]: the half-inhibitory concentration (IC50) is above 2 µM.

The subject of another experiment is NCI-H2141. The experiment can be described thus: cells. It is filed as functional, cell-based, Homo sapiens. Conditions: Homo sapiens, NCI-H2141.
Description: SANGER: Inhibition of human NCI-H2141 cell growth in a cell viability assay.
In the case of `C=CC(=O)N1CCCC(Nc2nc(Nc3ccc(N(C)C(=O)CC)cc3)nc3[nH]cnc23)C1` (configuration not stated), the IC50 was above 10.2 µM.

The compound `COc1cc(N2CCC(N3CCN(C)CC3)CC2)ccc1Nc1ncc(Cl)c(Nc2ccccc2S(=O)(=O)C(C)C)n1` [TAE-684] came in with an IC50 above 2 µM.

For a further experiment, the system named is NCI-H1882. The experiment can be described thus: cells. It is filed as functional, cell-based, Homo sapiens. To be noted: Homo sapiens, NCI-H1882.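 Note: growth inhibition of the cell line, determined with a viability assay.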
Description: SANGER: Inhibition of human NCI-H1882 cell growth in a cell viability assay.
Regarding `C=CC(=O)N1CCCC(Nc2nc(Nc3ccc(N(C)C(=O)CC)cc3)nc3[nH]cnc23)C1` (configuration not stated), the half-maximal inhibitory concentration (IC50) is above 10.2 µM.

Turning to `COc1cc(N2CCC(N3CCN(C)CC3)CC2)ccc1Nc1ncc(Cl)c(Nc2ccccc2S(=O)(=O)C(C)C)n1` [TAE-684], the concentration for half-maximal inhibition (IC50) is 1.24 µM.

In another experiment the test system is SCLC-21H. The experiment can be described thus: cells. It is filed as functional, cell-based, Homo sapiens. Conditions: Homo sapiens, SCLC-21H.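 Note: growth inhibition of cultured human SCLC-21H cells, read out with a cell viability assay.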
Description: SANGER: Inhibition of human SCLC-21H cell growth in a cell viability assay.
As for `C=CC(=O)N1CCCC(Nc2nc(Nc3ccc(N(C)C(=O)CC)cc3)nc3[nH]cnc23)C1` (configuration not stated), the IC50 is above 10.2 µM.

Compound `COc1cc(N2CCC(N3CCN(C)CC3)CC2)ccc1Nc1ncc(Cl)c(Nc2ccccc2S(=O)(=O)C(C)C)n1` [TAE-684] showed a half-inhibitory concentration (IC50) above 2 µM.

The test system of the next experiment is NCI-H322M. The experiment can be described thus: cells. To be noted: Homo sapiens, NCI-H322M. It is filed as functional, cell-based, Homo sapiens.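 Note: cell viability assay measuring inhibition of growth of human NCI-H322M cells.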
Description: SANGER: Inhibition of human NCI-H322M cell growth in a cell viability assay.
`C=CC(=O)N1CCCC(Nc2nc(Nc3ccc(N(C)C(=O)CC)cc3)nc3[nH]cnc23)C1` (configuration not stated) yielded a half-maximal inhibitory concentration (IC50) above 10.2 µM.

`COc1cc(N2CCC(N3CCN(C)CC3)CC2)ccc1Nc1ncc(Cl)c(Nc2ccccc2S(=O)(=O)C(C)C)n1` [TAE-684] yielded an IC50 above 2 µM.

The test system of another experiment is ARH-77. The experiment can be described thus: cells. To be noted: Homo sapiens, ARH-77. It is filed as functional, cell-based, Homo sapiens.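 Note: growth inhibition of ARH-77 cells, read out by a cell viability assay.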
Description: SANGER: Inhibition of human ARH-77 cell growth in a cell viability assay.
`C=CC(=O)N1CCCC(Nc2nc(Nc3ccc(N(C)C(=O)CC)cc3)nc3[nH]cnc23)C1` (configuration not stated) yielded an IC50 above 10.2 µM.

Compound `COc1cc(N2CCC(N3CCN(C)CC3)CC2)ccc1Nc1ncc(Cl)c(Nc2ccccc2S(=O)(=O)C(C)C)n1` [TAE-684] yielded an IC50 above 2 µM.

Another experiment concerns Daudi. Put plainly: cells. Conditions: Homo sapiens, Daudi. It is filed as functional, cell-based, Homo sapiens.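 Note: growth inhibition of Daudi cells, read out by a viability assay.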
Description: SANGER: Inhibition of human Daudi cell growth in a cell viability assay.
`C=CC(=O)N1CCCC(Nc2nc(Nc3ccc(N(C)C(=O)CC)cc3)nc3[nH]cnc23)C1` (configuration not stated) came in with an IC50 above 10.2 µM.

On to `COc1cc(N2CCC(N3CCN(C)CC3)CC2)ccc1Nc1ncc(Cl)c(Nc2ccccc2S(=O)(=O)C(C)C)n1` [TAE-684], for which inhibition was half-maximal at 1.79 µM (IC50).
